Experimental data: patent US6737383B1, “Herbicidal oxadiazolidines” (priority 1999, dated 2004)

Assays:
sugar beet = assay: Test B pre/postemergence sugar beet; assay type: in vivo, Beta vulgaris; settings: for Plant response rating, Sugarbeets: Rate 250 g/ha
Procedure, shortened: (§1)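 Response is a visual 0-to-10 score relative to untreated plants, where 0 means no effect and 10 means complete control, taken twelve to sixteen days after application. Treatments went onto soil at planting and onto foliage of 1- to 4-leaf plants, using a surfactant-containing non-phytotoxic solvent.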

wheat = assay: Test B pre/postemergence wheat; assay type: in vivo, Triticum aestivum; settings: for Plant response rating, Wheat: Rate 250 g/ha
Procedure, shortened: as §1

surinam grass = assay: Test B pre/postemergence surinam grass; assay type: in vivo, Brachiaria decumbens
Procedure, shortened: as §1

cocklebur = assay: Test B pre/postemergence cocklebur; assay type: in vivo, Xanthium strumarium
Procedure, shortened: as §1

soybean = assay: Test B pre/postemergence soybean; assay type: in vivo, Glycine max
Procedure, shortened: as §1

morningglory = assay: Test B pre/postemergence morningglory; assay type: in vivo, Ipomoea hederacea
Procedure, shortened: as §1

purple nutsedge = assay: Test B pre/postemergence purple nutsedge; assay type: in vivo, Cyperus rotundus
Procedure, shortened: as §1

giant foxtail = assay: Test B pre/postemergence giant foxtail; assay type: in vivo, Setaria faberii
Procedure, shortened: as §1

wild oat = assay: Test B pre/postemergence wild oat; assay type: in vivo, Avena fatua; settings: for Plant response rating, Wild oats: Rate 250 g/ha
Procedure, shortened: as §1

blackgrass = assay: Test B pre/postemergence blackgrass; assay type: in vivo, Alopecurus myosuroides
Procedure, shortened: as §1

bedstraw = assay: Test B pre/postemergence bedstraw; assay type: in vivo, Galium aparine; settings: Preemergence
Procedure, shortened: as §1

corn = assay: Test B pre/postemergence corn; assay type: in vivo, Zea mays
Procedure, shortened: as §1

crabgrass = assay: Test B pre/postemergence crabgrass; assay type: in vivo, Digitaria sanguinalis
Procedure, shortened: as §1

pigweed = assay: Test B pre/postemergence pigweed; assay type: in vivo, Amaranthus retroflexus
Procedure, shortened: as §1

velvetleaf = assay: Test B pre/postemergence velvetleaf; assay type: in vivo, Abutilon theophrasti; settings: for Plant response rating, Velvetleaf: Rate 250 g/ha
Procedure, shortened: as §1

rape = assay: Test B pre/postemergence rape; assay type: in vivo, Brassica napus
Procedure, shortened: as §1

[1] = Postemergence, Rate 62 g/ha, scale 0 to 10, 0 is no effect, 10 is complete control
[2] = Postemergence, Rate 125 g/ha, scale of 0 to 10 where 0 is no effect and 10 is complete control
[3] = Preemergence, Rate 62 g/ha, scale 0 to 10 (0 no effect, 10 complete control)
[4] = Preemergence, Rate 125 g/ha, 0 is no effect, 10 is complete control
[5] = Preemergence, scale of 0 to 10 where 0 is no effect and 10 is complete control
[6] = Preemergence, Rate 500 g/ha, scale 0 (no effect) to 10 (complete control)
[7] = Postemergence, scale 0 to 10, 0 is no effect, 10 is complete control
[8] = Rate 500 g/ha, Postemergence, scale 0 to 10, 0 no effect, 10 complete control
[9] = Postemergence, Rate 250 g/ha, scale 0 to 10, 0 no effect, 10 complete control
[10] = Preemergence, Rate 250 g/ha, scale of 0 to 10 where 0 is no effect and 10 is complete control
[11] = Preemergence, Rate 125 g/ha, scale 0 to 10 (0 no effect, 10 complete control)
[12] = Rate 250 g/ha, Postemergence, scale 0 to 10, 0 is no effect, 10 is complete control

CCCn1c(=O)on(C(=O)N(c2ccccc2)C(C)C)c1=O [Compound 92]
0: Wheat plant response rating (wheat; [1]) | Cocklebur plant response rating (cocklebur; [1]) | Cocklebur plant response rating (cocklebur; [3]) | Plant response rating, Cocklebur (cocklebur; [10]) | Soybean plant response rating (soybean; [3]) | Morningglory plant response rating (morningglory; [3]) | Plant response rating, Morningglory (morningglory; [11]) | Plant response rating, Morningglory (morningglory; [10]) | Nutsedge plant response rating (purple nutsedge; [1]) | Nutsedge plant response rating (purple nutsedge; [2]) | Nutsedge plant response rating (purple nutsedge; [9]) | Nutsedge plant response rating (purple nutsedge; [3]) | Plant response rating, Nutsedge (purple nutsedge; [11]) | Plant response rating, Nutsedge (purple nutsedge; [10]) | Nutsedge plant response rating (purple nutsedge; [6]) | Wild oats plant response rating (wild oat; [1]) | Bedstraw plant response rating (bedstraw; Rate 62 g/ha, scale 0 to 10 (0 no effect, 10 complete control)) | Plant response rating, Bedstraw (bedstraw; Rate 125 g/ha, scale 0 to 10 (0 no effect, 10 complete control)) | Plant response rating, Bedstraw (bedstraw; Rate 250 g/ha, scale of 0 to 10 where 0 is no effect and 10 is complete control) | Corn plant response rating (corn; [1]) | Corn plant response rating (corn; [2]) | Corn plant response rating (corn; [9]) | Corn plant response rating (corn; [3]) | Velvetleaf plant response rating (velvetleaf; [1]) | Velvetleaf plant response rating (velvetleaf; [2]) | Plant response rating, Velvetleaf (velvetleaf; [7])
4: Sugarbeets plant response rating (sugar beet; [2]) | Plant response rating, Soybean (soybean; [10]) | Corn plant response rating (corn; [8]) | Plant response rating, Redroot pigweed (pigweed; [12]) | Velvetleaf plant response rating (velvetleaf; [3]) | Rape plant response rating (rape; [9]) | Rape plant response rating (rape; [3])
6: Sugarbeets plant response rating (0 to 10 scale) (sugar beet; [4]) | Plant response rating, Sugarbeets (sugar beet; [7]) | Sugarbeets plant response rating (sugar beet; [8]) | Wheat plant response rating (0 to 10 scale) (wheat; [4]) | Wheat plant response rating (wheat; [8]) | Crabgrass plant response rating (crabgrass; [1]) | Velvetleaf plant response rating (0 to 10 scale) (velvetleaf; [4]) | Plant response rating, Velvetleaf (velvetleaf; [5]) | Rape plant response rating (rape; [8])
1: Sugarbeets plant response rating (sugar beet; [1]) | Cocklebur plant response rating (cocklebur; [2]) | Wild oats plant response rating (wild oat; [2]) | Plant response rating, Wild oats (wild oat; [7]) | Bedstraw plant response rating (bedstraw; Rate 500 g/ha, scale 0 (no effect) to 10 (complete control))
5: Plant response rating, Wheat (wheat; [7]) | B. signalgrass plant response rating (surinam grass; Rate 125 g/ha, Postemergence, scale 0 to 10, 0 no effect, 10 complete control) | Soybean plant response rating (soybean; [8]) | Wild oats plant response rating (wild oat; [8]) | Plant response rating, Corn (corn; [10]) | Redroot pigweed plant response rating (pigweed; [8])
10: B. signalgrass plant response rating (surinam grass; [3]) | Plant response rating, B. signalgrass (surinam grass; [10]) | Morningglory plant response rating (morningglory; [9]) | Morningglory plant response rating (morningglory; [8]) | Giant foxtail plant response rating (giant foxtail; [3]) | Plant response rating, Giant foxtail (giant foxtail; [11]) | Plant response rating, Giant foxtail (giant foxtail; [10]) | Giant foxtail plant response rating (giant foxtail; [6]) | Wild oats plant response rating (wild oat; [6]) | Plant response rating, Blackgrass (blackgrass; [11]) | Plant response rating, Blackgrass (blackgrass; [10]) | Blackgrass plant response rating (blackgrass; [6]) | Plant response rating, Crabgrass (crabgrass; [11]) | Crabgrass plant response rating (crabgrass; [6]) | Redroot pigweed plant response rating (pigweed; [6]) | Plant response rating, Rape (rape; [10]) | Rape plant response rating (rape; [6])
7: Plant response rating, Wheat (wheat; [5]) | Wheat plant response rating (wheat; [6]) | B. signalgrass plant response rating (surinam grass; [9]) | B. signalgrass plant response rating (surinam grass; Rate 500 g/ha, Postemergence, scale of 0 to 10 where 0 is no effect and 10 is complete control) | Morningglory plant response rating (morningglory; [1]) | Wild oats plant response rating (wild oat; [3]) | Blackgrass plant response rating (blackgrass; [1]) | Blackgrass plant response rating (blackgrass; [2]) | Blackgrass plant response rating (blackgrass; [9]) | Plant response rating, Redroot pigweed (pigweed; [11])
8: Plant response rating, Sugarbeets (sugar beet; [5]) | Morningglory plant response rating (morningglory; [2]) | Giant foxtail plant response rating (giant foxtail; [1]) | Giant foxtail plant response rating (giant foxtail; [2]) | Wild oats plant response rating (0 to 10 scale) (wild oat; [4]) | Blackgrass plant response rating (blackgrass; [8]) | Crabgrass plant response rating (crabgrass; [2]) | Crabgrass plant response rating (crabgrass; [3]) | Plant response rating, Crabgrass (crabgrass; [10]) | Velvetleaf plant response rating (velvetleaf; [6])
2: Sugarbeets plant response rating (sugar beet; [3]) | Wheat plant response rating (wheat; [2]) | Cocklebur plant response rating (cocklebur; [9]) | Nutsedge plant response rating (purple nutsedge; [8]) | Plant response rating, Corn (corn; [11]) | Redroot pigweed plant response rating (pigweed; [1]) | Redroot pigweed plant response rating (pigweed; [3]) | Rape plant response rating (rape; [1])
9: Sugarbeets plant response rating (sugar beet; [6]) | Soybean plant response rating (soybean; [6]) | Giant foxtail plant response rating (giant foxtail; [9]) | Giant foxtail plant response rating (giant foxtail; [8]) | Plant response rating, Wild oats (wild oat; [5]) | Blackgrass plant response rating (blackgrass; [3]) | Corn plant response rating (corn; [6]) | Crabgrass plant response rating (crabgrass; [9]) | Crabgrass plant response rating (crabgrass; [8]) | Plant response rating, Redroot pigweed (pigweed; [10]) | Plant response rating, Rape (rape; [11])
3: Wheat plant response rating (wheat; [3]) | B. signalgrass plant response rating (surinam grass; [1]) | Cocklebur plant response rating (cocklebur; [8]) | Soybean plant response rating (soybean; [1]) | Soybean plant response rating (soybean; [2]) | Plant response rating, Soybean (soybean; [11]) | Plant response rating, Soybean (soybean; [12]) | Morningglory plant response rating (morningglory; [6]) | Redroot pigweed plant response rating (pigweed; [2]) | Rape plant response rating (rape; [2])
